In patent US6552058B1, “Oxazolidinedione derivatives and their use” (Takeda Chemical Industries, Ltd., priority 1993, dated 2003):
Where two headings read alike, the source gives them in different places.

Legend:
KKA^y mice = experiment: Hypoglycemic and hypolipidemic actions in mice (plasma glucose and triglyceride); assay type: in vivo; conditions: Mus musculus, po, 96 h, reduction from control group, 0.005% in powdery feed for 4 days
Source text: Hypoglycemic and Hypolipidemic Actions in Mice
A test compound mixed in a powdery feed (CE-2, Japan Clea) at a rate of 0.005% was fed to KKA^y mice (9-14 week old) freely for 4 days. During the period, the animals had free access to water. Blood was collected from the orbital venous plexus. Using the plasma, glucose and triglyceride were enzymatically determined quantitatively by using Iatrochem-GLU(A) and Iatro-MA701 TG kit (latron Inc.). The respective values are percents reduction (%) found in drug-dosed groups from the control group not receiving the test compound, which are shown in [Table 1].

[1] = plasma glucose, read-out: Hypoglycemic Action % reduction
[2] = plasma triglyceride, read-out: Hypolipidemic Action % reduction

Question: Which melting point does the source give for `Cc1cccc(-c2nc(CCOc3ccc(C=CC=C4OC(=O)NC4=O)cc3)c(C)o2)c1` [Example 1, 5-[4-[2-[5-methyl-2-(3-methylphenyl)-4-oxazolyl]ethoxy]cinnamylidene]-2,4-oxazolidinedione] here?
Answer: 213 to 214 °C

Question: With `Cc1oc(-c2ccccc2)nc1Cc1cc2cc(C=CC=C3OC(=O)NC3=O)ccc2o1` [Example 14, 5-[3-[2-(5-methyl-2-phenyl-4-oxazolylmethyl)benzofuran-5-yl]-2-propenylidene]-2,4-oxazolidinedione] as the compound, how does the melting point read?
Answer: 237 to 239 °C

Question: Which melting point does the source give for `Cc1oc(-c2ccccc2)nc1CCOc1ccc(C=CC=CC=C2OC(=O)NC2=O)cc1` [Example 15, 5-[5-[4-[2-(5-methyl-2-phenyl-4-oxazolyl)ethoxy]phenyl]-2,4-pentadienylidene]-2,4-oxazolidinedione] here?
Answer: 209 to 211 °C

Question: With `Cc1cccc(-c2nc(CCOc3ccc(CCCC4OC(=O)NC4=O)cc3)c(C)o2)c1` (stereo not drawn) [Example 16, 5-[3-[4-[2-[5-methyl-2-(3-methylphenyl)-4-oxazolyl]ethoxy]phenyl]propyl]-2,4-oxazolidinedione] as the compound, how does the melting point read?
Answer: 149 to 150 °C

Question: Which inhibition in vivo at 0.005 % in diet (KKA^y mice; [1]) does the source give for `Cc1oc(-c2ccccc2)nc1CCOc1ccc(CCCC2OC(=O)NC2=O)cn1` (stereo not drawn) [Example 23, 5-[3-[2-[2-(5-methyl-2-phenyl-4-oxazolyl)ethoxy]-5-pyridyl]propyl]-2,4-oxazolidinedione] here?
Answer: 39%

Question: And the inhibition in vivo at 0.005 % in diet (KKA^y mice; [2])?
Answer: 33%

Question: And the melting point?
Answer: 169 to 171 °C

Question: With `Cc1oc(-c2ccccc2)nc1CCOc1ccc(CCC2OC(=O)NC2=O)cc1` (stereo not drawn) [Example 24, 5-[2-[4-[2-(5-methyl-2-phenyl-4-oxazolyl)ethoxy]phenyl]ethyl]-2,4-oxazolidinedione] as the compound, how does the inhibition in vivo at 0.005 % in diet (KKA^y mice; [1]) read?
Answer: 56%

Question: What about the inhibition in vivo at 0.005 % in diet (KKA^y mice; [2]) of the same compound?
Answer: 53%

Question: And the melting point?
Answer: 193 to 194 °C

Question: For `Cc1oc(-c2ccccc2)nc1Cc1cc2cc(CCCC3OC(=O)NC3=O)ccc2o1` (stereo not drawn) [Example 30, 5-[3-[2-(5-methyl-2-phenyl-4-oxazolylmethyl)benzofuran-5-yl]propyl]-2,4-oxazolidinedione], which inhibition in vivo at 0.005 % in diet (KKA^y mice; [1]) is on record?
Answer: 57%

Question: What about the inhibition in vivo at 0.005 % in diet (KKA^y mice; [2]) of the same compound?
Answer: 70%

Question: What about the melting point of the same compound?
Answer: 184 to 185 °C

Question: For `Cc1oc(-c2ccccc2)nc1CCOc1ccc(CCCCCC2OC(=O)NC2=O)cc1` (stereo not drawn) [Example 31, 5-[5-[4-[2-(5-methyl-2-phenyl-4-oxazolyl)ethoxy]phenyl]pentyl]-2,4-oxazolidinedione], which melting point is on record?
Answer: 157 to 158 °C

Question: For `Cc1oc(-c2ccccc2)nc1COc1ccc(CCC2OC(=O)NC2=O)cc1` (stereo not drawn) [Example 32, 5-[2-[4-(5-methyl-2-phenyl-4-oxazolylmethoxy)phenyl]ethyl]-2,4-oxazolidinedione], which inhibition in vivo at 0.005 % in diet (KKA^y mice; [1]) is on record?
Answer: 63%

Question: And the inhibition in vivo at 0.005 % in diet (KKA^y mice; [2])?
Answer: 60%

Question: Which inhibition in vivo at 0.005 % in diet (KKA^y mice; [1]) does the source give for `Cc1oc(-c2ccccc2)nc1COc1ccc(CCCCCC2OC(=O)NC2=O)cc1` (stereo not drawn) [Example 33, 5-[5-[4-(5-methyl-2-phenyl-4-oxazolylmethoxy)phenyl]pentyl]-2,4-oxazolidinedione] here?
Answer: 45%

Question: What about the inhibition in vivo at 0.005 % in diet (KKA^y mice; [2]) of the same compound?
Answer: 59%

Question: And the melting point?
Answer: 120 to 121 °C

Question: For `Cc1oc(-c2ccccc2)nc1COc1ccc(CCCCC2OC(=O)NC2=O)cc1` (stereo not drawn) [Example 34, 5-[4-[4-(5-methyl-2-phenyl-4-oxazolylmethoxy)phenyl]butyl]-2,4-oxazolidinedione], which inhibition in vivo at 0.005 % in diet (KKA^y mice; [1]) is on record?
Answer: 43%

Question: And the inhibition in vivo at 0.005 % in diet (KKA^y mice; [2])?
Answer: 51%

Question: What about the melting point of the same compound?
Answer: 186 to 187 °C

Question: Which inhibition in vivo at 0.005 % in diet (KKA^y mice; [1]) does the source give for `Cc1oc(-c2ccccc2)nc1C(=O)COc1ccc(CCCC2OC(=O)NC2=O)cc1` (stereo not drawn) [Example 35, 5-[3-[4-[2-(5-methyl-2-phenyl-4-oxazolyl)-2-oxoethoxy]phenyl]propyl]-2,4-oxazolidinedione] here?
Answer: 42%

Question: What about the inhibition in vivo at 0.005 % in diet (KKA^y mice; [2]) of the same compound?
Answer: 32%

Question: With `Cc1oc(-c2ccccc2)nc1C(O)COc1ccc(CCCC2OC(=O)NC2=O)cc1` (stereo not drawn) [Example 36, 5-[3-[4-[2-hydroxy-2-(5-methyl-2-phenyl-4-oxazolyl)ethoxy]phenyl]propyl]-2,4-oxazolidinedione] as the compound, how does the inhibition in vivo at 0.005 % in diet (KKA^y mice; [1]) read?
Answer: 56%

Question: And the inhibition in vivo at 0.005 % in diet (KKA^y mice; [2])?
Answer: 48%

Question: What about the melting point of the same compound?
Answer: 146 to 147 °C

Question: Which results are given for `Cc1oc(-c2ccccc2)nc1COc1ccc(CCCC2OC(=O)NC2=O)cn1` (stereo not drawn) [Example 52, 5-[3-[2-(5-methyl-2-phenyl-4-oxazolylmethoxy)-5-pyridyl]propyl]-2,4-oxazolidinedione]?
Answer: inhibition in vivo at 0.005 % in diet (KKA^y mice; [1]): 54%; inhibition in vivo at 0.005 % in diet (KKA^y mice; [2]): 82%

Question: With `Cc1oc(-c2ccccc2)nc1COc1cccc(CCCC2OC(=O)NC2=O)c1` (stereo not drawn) [Example 56, 5-[3-[3-(5-methyl-2-phenyl-4-oxazolylmethoxy)phenyl]propyl]-2,4-oxazolidinedione] as the compound, how does the inhibition in vivo at 0.005 % in diet (KKA^y mice; [1]) read?
Answer: 32%

Question: And the inhibition in vivo at 0.005 % in diet (KKA^y mice; [2])?
Answer: 24%

Question: For `Cc1oc(-c2ccccc2)nc1COc1ccc(C(C)CCC2OC(=O)NC2=O)cc1` (stereo not drawn) [Example 60, 5-[3-[4-(5-methyl-2-phenyl-4-oxazolylmethoxy)phenyl]butyl]-2,4-oxazolidinedione], which inhibition in vivo at 0.005 % in diet (KKA^y mice; [1]) is on record?
Answer: 54%

Question: What about the inhibition in vivo at 0.005 % in diet (KKA^y mice; [2]) of the same compound?
Answer: 77%
